Experimental data published in patent US8952024B2, “Herbicidal pyrimidone derivatives” (E I du Pont de Nemours and Company, priority 2009, dated 2015).

Columns and labels:
Assay type in all cases: in vivo
[1] = system: umbrella sedge (Cyperus difformis); assay: Test B flooded paddy test; details: for Plant response rating, Flood, Sedge, Umbrella: 250 g ai/ha, flooded paddy test, visual rating on 0 to 100 scale (0 no effect, 100 complete control) after 13 to 15 days; for Plant response rating, Sedge, Umbrella: Flood (flooded paddy test), 13 to 15 days
In short: (§1)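 Greenhouse-held for 13 to 15 days, treated pots were compared visually with controls and scored 0–100 (0, no effect). Treatment had been made into paddy water kept at 3 cm above the soil, with plants at the 2-leaf stage.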

[2] = system: barnyardgrass (Echinochloa crus-galli); assay: Test B flooded paddy test; details: for Plant response rating, Flood, Barnyardgrass: 250 g ai/ha, flooded paddy test, visual rating on 0 to 100 scale (0 no effect, 100 complete control) after 13 to 15 days; for Plant response rating, Barnyardgrass: Flood (flooded paddy test), 13 to 15 days
In short: as §1

[3] = system: green foxtail (Setaria viridis); assay: Test B pre-/postemergence plant response
In short: (§2)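 Ratings reflect visual comparison with untreated controls 13 to 15 days after application, from 0 (no effect) to 100 (complete control). Application was preemergence to seeded loam/sand soil or postemergence to 1- to 4-leaf plants, with compound in a non-phytotoxic, surfactant-containing solvent.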

[4] = system: bermudagrass (Cynodon dactylon); assay: Test B pre-/postemergence plant response
In short: as §2

[5] = system: cocklebur (Xanthium strumarium); assay: Test B pre-/postemergence plant response
In short: as §2

[6] = system: large crabgrass (Digitaria sanguinalis); assay: Test B pre-/postemergence plant response
In short: as §2

[7] = system: yellow nutsedge (Cyperus esculentus); assay: Test B pre-/postemergence plant response
In short: as §2

wild oat (Avena fatua) = assay: Test B pre-/postemergence plant response
In short: as §2

[8] = system: goosegrass (Eleusine indica); assay: Test B pre-/postemergence plant response
In short: as §2

[9] = system: wheat (Triticum aestivum); assay: Test B pre-/postemergence plant response
In short: as §2

[10] = system: lambsquarters (Chenopodium album); assay: Test B pre-/postemergence plant response
In short: as §2

[11] = system: morningglory (Ipomoea coccinea); assay: Test B pre-/postemergence plant response
In short: as §2

[12] = 31 g ai/ha, scale of 0 to 100 where 0 is no effect and 100 is complete control
[13] = 62 g ai/ha, scale 0 to 100, 0 is no effect, 100 is complete control
[14] = 125 g ai/ha, scale 0 to 100, 0 is no effect, 100 is complete control
[15] = 250 g ai/ha, Preemergence, 0 to 100 scale
[16] = Postemergence, 31 g ai/ha, scale 0 to 100 (0 no effect, 100 complete control)
[17] = Postemergence, 62 g ai/ha, scale 0 (no effect) to 100 (complete control), 13 to 15 days
[18] = Postemergence, 125 g ai/ha, visual rating after 13 to 15 days, scale 0 (no effect) to 100 (complete control)
[19] = Postemergence, 250 g ai/ha, scale 0 to 100
[20] = Preemergence, 31 g ai/ha, scale 0 to 100 (0 no effect, 100 complete control)
[21] = Preemergence, 62 g ai/ha, scale 0 to 100 (0 no effect, 100 complete control)
[22] = Preemergence, 125 g ai/ha, 0 to 100 scale
[23] = 62 g ai/ha, scale of 0 to 100 where 0 is no effect and 100 is complete control
[24] = 31 g ai/ha, postemergence, scale 0 to 100, 0 is no effect, 100 is complete control
[25] = 62 g ai/ha, postemergence, 0 is no effect, 100 is complete control, 13 to 15 days
[26] = Postemergence, 125 g ai/ha, scale 0 to 100 (0 no effect, 100 complete control)
[27] = Postemergence, 250 g ai/ha, scale 0 to 100 (0 no effect, 100 complete control)

3-cyclohexyl-5-[(2-hydroxy-6-oxo-1-cyclohexen-1-yl)carbonyl]-2-phenyl-4(3H)-pyrimidinone [Compound 128]
Plant response rating, Flood, Sedge, Umbrella [1]: 85 | Plant response rating, Sedge, Umbrella [1, 12]: 0 | Plant response rating, Sedge, Umbrella [1, 13]: 0 | Plant response rating, Sedge, Umbrella [1, 14]: 40 | Plant response rating, Flood, Barnyardgrass [2]: 25 | Plant response rating, Barnyardgrass [2, 12]: 0 | Plant response rating, Barnyardgrass [2, 13]: 0 | Plant response rating, Barnyardgrass [2, 14]: 0 | Plant response rating, Foxtail, Green [3, 15]: 65 | Plant response rating, Foxtail, Green [3, 16]: 60 | Plant response rating, Foxtail, Green [3, 17]: 60 | Plant response rating, Foxtail, Green [3, 18]: 85 | Foxtail, Green plant response rating [3, 19]: 98 | Plant response rating, Foxtail, Green [3, 20]: 0 | Plant response rating, Foxtail, Green [3, 21]: 25 | Foxtail, Green plant response rating [3, 22]: 65 | Plant response rating, Bermudagrass [4, 15]: 100 | Plant response rating, Bermudagrass [4, 16]: 80 | Plant response rating, Bermudagrass [4, 17]: 100 | Plant response rating, Bermudagrass ([4]; Postemergence, 125 g ai/ha, scale 0 to 100 (0 no effect, 100 complete control), 13 to 15 days): 100 | Bermudagrass plant response rating [4, 19]: 100 | Plant response rating, Bermudagrass [4, 20]: 98 | Plant response rating, Bermudagrass [4, 21]: 100 | Bermudagrass plant response rating [4, 22]: 100 | Plant response rating, Cocklebur [5, 15]: 100 | Plant response rating, Cocklebur [5, 16]: 90 | Plant response rating, Cocklebur [5, 17]: 100 | Plant response rating, Cocklebur [5, 18]: 100 | Cocklebur plant response rating [5, 19]: 100 | Plant response rating, Cocklebur [5, 20]: 35 | Plant response rating, Cocklebur [5, 21]: 75 | Cocklebur plant response rating [5, 22]: 95 | Plant response rating, Crabgrass, Large [6, 15]: 100 | Plant response rating, Crabgrass, Large [6, 16]: 80 | Plant response rating, Crabgrass, Large [6, 17]: 85 | Plant response rating, Crabgrass, Large [6, 18]: 100 | Crabgrass, Large plant response rating [6, 19]: 100 | Plant response rating, Crabgrass, Large [6, 20]: 60 | Plant response rating, Crabgrass, Large [6, 21]: 100 | Crabgrass, Large plant response rating [6, 22]: 100 | Plant response rating, Nutsedge, Yellow [7, 15]: 90 | Plant response rating, Nutsedge, Yellow [7, 16]: 25 | Plant response rating, Nutsedge, Yellow [7, 17]: 35 | Plant response rating, Nutsedge, Yellow [7, 18]: 50 | Nutsedge, Yellow plant response rating [7, 19]: 60 | Plant response rating, Nutsedge, Yellow [7, 20]: 0 | Plant response rating, Nutsedge, Yellow [7, 21]: 55 | Nutsedge, Yellow plant response rating [7, 22]: 85 | Plant response rating, Oat, Wild (wild oat (Avena fatua); [15]): 40 | Plant response rating, Oat, Wild (wild oat (Avena fatua); [16]): 50 | Plant response rating, Oat, Wild (wild oat (Avena fatua); [17]): 50 | Plant response rating, Oat, Wild (wild oat (Avena fatua); [18]): 70 | Oat, Wild plant response rating (wild oat (Avena fatua); [19]): 70 | Plant response rating, Oat, Wild (wild oat (Avena fatua); [20]): 0 | Plant response rating, Oat, Wild (wild oat (Avena fatua); [21]): 0 | Oat, Wild plant response rating (wild oat (Avena fatua); [22]): 10 | Plant response rating, Goosegrass [8, 15]: 100 | Plant response rating, Goosegrass [8, 16]: 65 | Plant response rating, Goosegrass [8, 17]: 85 | Plant response rating, Goosegrass [8, 18]: 95 | Goosegrass plant response rating [8, 19]: 98 | Plant response rating, Goosegrass [8, 20]: 70 | Goosegrass plant response rating [8, 22]: 100 | Plant response rating, Wheat [9, 15]: 5 | Plant response rating, Wheat [9, 16]: 30 | Plant response rating, Wheat [9, 17]: 35 | Plant response rating, Wheat [9, 18]: 40 | Wheat plant response rating [9, 19]: 45 | Plant response rating, Wheat [9, 20]: 0 | Plant response rating, Wheat [9, 21]: 0 | Wheat plant response rating [9, 22]: 0 | Plant response rating, Lambsquarters [10, 15]: 100 | Plant response rating, Lambsquarters [10, 16]: 50 | Plant response rating, Lambsquarters [10, 17]: 70 | Plant response rating, Lambsquarters [10, 18]: 95 | Lambsquarters plant response rating [10, 19]: 98 | Plant response rating, Lambsquarters [10, 20]: 100 | Plant response rating, Lambsquarters [10, 21]: 100 | Lambsquarters plant response rating [10, 22]: 100 | Plant response rating, Morningglory [11, 15]: 100 | Plant response rating, Morningglory [11, 16]: 15 | Plant response rating, Morningglory [11, 17]: 15 | Plant response rating, Morningglory [11, 18]: 70 | Morningglory plant response rating [11, 19]: 80 | Plant response rating, Morningglory [11, 20]: 0 | Plant response rating, Morningglory [11, 21]: 0 | Morningglory plant response rating [11, 22]: 35

CCCCn1c(-c2cc(F)cc(F)c2)ncc(C(=O)C2=C(O)CCCC2=O)c1=O [Compound 121]
Plant response rating, Flood, Sedge, Umbrella [1]: 70 | Plant response rating, Sedge, Umbrella [1, 23]: 30 | Plant response rating, Flood, Barnyardgrass [2]: 70 | Plant response rating, Barnyardgrass [2, 23]: 30 | Plant response rating, Foxtail, Green [3, 24]: 80 | Foxtail, Green plant response rating (0 to 100 scale) [3, 25]: 90 | Plant response rating, Foxtail, Green [3, 26]: 100 | Plant response rating, Foxtail, Green [3, 27]: 100 | Plant response rating, Bermudagrass [4, 24]: 95 | Bermudagrass plant response rating (0 to 100 scale) [4, 25]: 98 | Plant response rating, Bermudagrass [4, 26]: 100 | Plant response rating, Bermudagrass [4, 27]: 100 | Plant response rating, Cocklebur [5, 24]: 40 | Cocklebur plant response rating (0 to 100 scale) [5, 25]: 45 | Plant response rating, Cocklebur [5, 26]: 85 | Plant response rating, Cocklebur [5, 27]: 100 | Plant response rating, Crabgrass, Large [6, 24]: 85 | Crabgrass, Large plant response rating (0 to 100 scale) [6, 25]: 90 | Plant response rating, Crabgrass, Large [6, 26]: 95 | Plant response rating, Crabgrass, Large [6, 27]: 98 | Plant response rating, Nutsedge, Yellow [7, 24]: 5 | Nutsedge, Yellow plant response rating (0 to 100 scale) [7, 25]: 45 | Plant response rating, Nutsedge, Yellow [7, 26]: 45 | Plant response rating, Nutsedge, Yellow [7, 27]: 50 | Plant response rating, Oat, Wild (wild oat (Avena fatua); [24]): 60 | Oat, Wild plant response rating (0 to 100 scale) (wild oat (Avena fatua); [25]): 90 | Plant response rating, Oat, Wild (wild oat (Avena fatua); [26]): 98 | Plant response rating, Oat, Wild (wild oat (Avena fatua); [27]): 98 | Plant response rating, Goosegrass [8, 24]: 95 | Goosegrass plant response rating (0 to 100 scale) [8, 25]: 98 | Plant response rating, Goosegrass [8, 26]: 98 | Plant response rating, Goosegrass [8, 27]: 98 | Wheat plant response rating (0 to 100 scale) [9, 25]: 45 | Plant response rating, Wheat [9, 26]: 45 | Plant response rating, Lambsquarters [10, 24]: 95 | Lambsquarters plant response rating (0 to 100 scale) [10, 25]: 100 | Plant response rating, Lambsquarters [10, 26]: 100 | Plant response rating, Lambsquarters [10, 27]: 100 | Plant response rating, Morningglory [11, 24]: 5 | Morningglory plant response rating (0 to 100 scale) [11, 25]: 20 | Plant response rating, Morningglory [11, 26]: 25 | Plant response rating, Morningglory [11, 27]: 45
